Laboratory results published in patent publication US6545033B1, “Fused 1-(2,6-dichloro-4-trifluoromethylphenyl)-pyrazoles, the synthesis thereof and the use thereof as pesticides” (3-Dimensional Pharmaceuticals, Inc., priority 1999, dated 2003).

Molecular target: Mouse Brain GABA Receptors
Assay: In vitro assay of binding to mouse brain GABA receptors (3H-EBOB displacement, mouse brain membranes)
Details: displacement of 5.2 nM 3H-EBOB, about 45 min at about 24° C.
Experimental: Mouse brains were obtained from carbon dioxide-asphyxiated Swiss-Webster mice, washed with phosphate-buffered saline, and used either fresh or after storage at −80° C. for up to 10 months. Unless specified, all preparation steps were performed at 0-4° C. For each preparation, 20 brains were suspended in about 40 mL of 0.32 M sucrose and homogenized for about 2 minutes, using a Tissumizer™ homogenizer equipped with a SDT-100EN probe (available from Tekmar-Dohrmann, Cincinnati, Ohio) running at 50% of its maximum speed. The extract was centrifuged for about 5 min at about 1000×g to pellet intact brain tissue. The supernatant was retained and the pellet washed with an additional 40 mL of 0.32 M sucrose and centrifuged at 1000×g for about 5 minutes. The 1000×g supernatants were combined and centrifuged at about 10,000×g for about 20 min to pellet membranes. The 10,000×g supernatant was discarded and the pellet was resuspended in about 20 mL of water containing 1 mM EDTA. The sample was dialyzed two times for about 3 hours each against about 3 L of water. The sample was then centrifuged at about 25,000×g for about 30 min to pellet the membranes. After centrifugation, the supernatant was discarded and the wet pellet recovered. The protein concentration of the pellet was determined by the Bio-Rad Protein Assay (available from Bio-Rad Laboratories, Hercules, Calif.) using bovine serum albumin as a standard. The membranes were aliquoted and stored at −80° C. for up to 6 months before use.
Mouse brain membranes were prepared as described above from dissected mouse brains. Test compounds were dissolved in dimethylsulfoxide (DMSO) at concentrations ranging from about 2 nM to about 100 mM. About 1 μL of a dissolved test compound was dispensed into a well of a 96-well polystyrene plate. About 100 μL of ice cold assay buffer (10 mM phosphate, 300 mM NaCl, pH 7.5) containing 5.2 nM 4′-Ethynyl-4-n-[2,3-^3H2]propylbicycloorthobenzoate (^3H-EBOB, 38 Ci/mmol, available from NEN Life Science Products, Boston, Mass.) was added to the well, followed by about 100 μL of ice cold assay buffer containing about 0.25-0.5 mg/mL mouse brain membranes. Control wells were prepared the same way except that the mouse brain membranes were omitted from the “negative” wells, and the test compounds were omitted from the “positive” wells. The samples were incubated for about 45 min at about 24° C. and then filtered on a 0.1% (w/v) polyethylenimine-soaked glass fiber Filtermat A (available from EG&G Wallac Inc., Gaithersburg, Md.) followed by four 100 mL rinses of cold assay buffer using a Harvester 96® cell harvester (available from Tomtec, Orange, Conn.). The filtermat was air dried and radioactivity bound to the filtermat was detected with either a 1450 MicroBeta® Trilux scintillation counter (available from EG&G Wallac Inc.) or a Topcount NXT™ scintillation counter (available from Packard Instrument Co., Meriden, Conn.) using standard methods.
Specific binding was considered to be the difference between total ^3H bound to the mouse brain membranes in the absence of any inhibitors and nonspecific ^3H bound to the mouse brain membranes upon the addition of 5 μM unlabeled EBOB. The average radioactivity contained in the “negative” wells was subtracted from each of the assay wells. […] Compounds that displaced ^3H-EBOB specifically bound to the mouse brain membranes were tested at 24-48 different final concentrations, varying from about 1 nM to about 125 μM, in order to determine the concentration at which 50% of the maximum inhibition due to the addition of that compound was observed (IC50). […]

`FC(F)(F)c1cc(Cl)c(-n2cc3c(n2)CSC3)c(Cl)c1` [Compound 3, 2-[2,6-Dichloro-4-(trifluoromethyl)phenyl]-4,6-dihydrothieno-[3,4-c]pyrazole] and `FC(F)(F)c1cc(Cl)c(-n2cc3c(n2)CCC3)c(Cl)c1` [Compound 11, 2-[2,6-Dichloro-4-(trifluoromethyl)phenyl]-2,4,5,6-tetrahydrocyclopenta[c]pyrazole] are within 1.5-fold of each other in IC50: 2000 nM for the first, 1600 nM for the second.

Work on `FC(F)(F)c1cc(Cl)c(-n2cc3c(n2)CCCCC3)c(Cl)c1` [Compound 15, 2-[2,6-Dichloro-4-(trifluoromethyl)phenyl]-2,4,5,6,7,8-hexahydrocyclohepta[c]pyrazole] yielded an IC50 of 30000 nM.
